Measurements published in ChEMBL document CHEMBL1799932, “Antimalarial pyrido[1,2-a]benzimidazoles” (J Med Chem, 2011).

How the values were obtained:
Plasmodium berghei [1] = test: Antimalarial activity against GFP-transfected Plasmodium berghei strain ANKA infected in NMRI mouse assessed as reduction in parasitemia at 50 mg/kg, po administered as single dose measured on day 2 by FACS analysis; assay type: functional; design: scale not given: the % may be the effect or the level left
L6 = test: Cytotoxicity at rat L6 cells after 72 hrs by microplate alamar blue assay; assay type: cell-based; details: l6
Rattus norvegicus [2] = test: Apparent half life in fasted Sprague-Dawley rat assessed as 1-(2-Diethylaminoethylamino)-3-[4-(trifluoromethyl)phenyl]-pyrido[1,2-a]benzimidazole-4-carbonitrile at 5 mg/kg, iv after 48 hrs by LC-MS analysis; assay type: ADME, organism-based; design: dose 5 mg/kg, route intravenous; details: in vivo
[3] = Metabolic stability in mouse liver microsomes assessed as intrinsic clearance per mg protein after 60 mins by LC-MS analysis; assay type: ADME, Microsome
Rattus norvegicus [4] = test: Drug excretion in fasted Sprague-Dawley rat urine assessed as 1-(2-Diethylaminoethylamino)-3-[4-(trifluoromethyl)phenyl]-pyrido[1,2-a]benzimidazole-4-carbonitrile at 5 mg/kg, iv after 48 hrs by LC-MS analysis; assay type: ADME, organism-based; design: dose 5 mg/kg, route intravenous; details: in vivo
[5] = Metabolic stability in human liver microsomes assessed as intrinsic clearance per mg protein after 60 mins by LC-MS analysis; assay type: ADME, Microsome
[6] = Metabolic stability in rat liver microsomes assessed as intrinsic clearance per mg protein after 60 mins by LC-MS analysis; assay type: ADME, Microsome
Plasmodium berghei [7] = test: Antimalarial activity against GFP-transfected Plasmodium berghei strain ANKA infected in NMRI mouse assessed as reduction in parasitemia at 50 mg/kg/day, ip administered for 4 consecutive days measured 24 hrs after last treatment by FACS analysis relative to control; assay type: functional; design: scale not given: the % may be the effect or the level left; details: route intraperitoneal
Rattus norvegicus [8] = test: Tmax in fasted Sprague-Dawley rat assessed as 1-(2-Ethylaminoethylamino)-3-[4-(trifluoromethyl)phenyl]- pyrido[1,2-a]benzimidazole-4-carbonitrile level at 5 mg/kg, iv after 48 hrs by LC-MS analysis; assay type: ADME, organism-based; design: dose 5 mg/kg, route intravenous; details: in vivo
Rattus norvegicus [9] = test: Tmax in fasted Sprague-Dawley rat assessed as 1-(2-Ethylaminoethylamino)-3-[4-(trifluoromethyl)phenyl]- pyrido[1,2-a]benzimidazole-4-carbonitrile level at 20 mg/kg, po after 48 hrs by LC-MS analysis; assay type: ADME, organism-based; design: dose 20 mg/kg, route oral; details: in vivo
Rattus norvegicus [10] = test: AUC (0 to tlast) in fasted Sprague-Dawley rat assessed as 1-(2-Ethylaminoethylamino)-3-[4-(trifluoromethyl)phenyl]- pyrido[1,2-a]benzimidazole-4-carbonitrile level at 5 mg/kg, iv after 48 hrs by LC-MS analysis; assay type: ADME, organism-based, Plasma; design: time < 48 hr, dose 5 mg/kg, route intravenous; details: in vivo
Rattus norvegicus [11] = test: Cmax in fasted Sprague-Dawley rat assessed as 1-(2-Ethylaminoethylamino)-3-[4-(trifluoromethyl)phenyl]- pyrido[1,2-a]benzimidazole-4-carbonitrile level at 20 mg/kg, po after 48 hrs by LC-MS analysis; assay type: ADME, organism-based; design: dose 20 mg/kg, route oral; details: in vivo
Rattus norvegicus [12] = test: Drug excretion in fasted Sprague-Dawley rat urine assessed as 1-(2-Ethylaminoethylamino)-3-[4-(trifluoromethyl)phenyl]- pyrido[1,2-a]benzimidazole-4-carbonitrile level at 20 mg/kg, po after 48 hrs by LC-MS analysis; assay type: ADME, organism-based; design: dose 20 mg/kg, route oral; details: in vivo
Plasmodium berghei [13] = test: Antimalarial activity against GFP-transfected Plasmodium berghei strain ANKA infected in NMRI mouse assessed as increase in median survival time at 100 mg/kg/day, po administered for 4 days measured up to 30 days post infection (reference value: 5 to 7 days); assay type: functional
Plasmodium berghei [14] = test: Antimalarial activity against GFP-transfected Plasmodium berghei strain ANKA infected in NMRI mouse assessed as reduction in parasitemia at 50 mg/kg, po administered as single dose measured on day 4 by FACS analysis; assay type: functional; design: scale not given: the % may be the effect or the level left
Plasmodium berghei [15] = test: Antimalarial activity against GFP-transfected Plasmodium berghei strain ANKA infected in NMRI mouse assessed as reduction in parasitemia at 50 mg/kg, po administered as single dose measured on day 5 by FACS analysis; assay type: functional; design: scale not given: the % may be the effect or the level left
Plasmodium berghei [16] = test: Antimalarial activity against GFP-transfected Plasmodium berghei strain ANKA infected in NMRI mouse assessed as reduction in parasitemia at 25 mg/kg, po administered as single dose measured on day 2 by FACS analysis; assay type: functional; design: scale not given: the % may be the effect or the level left
Plasmodium berghei [17] = test: Antimalarial activity against GFP-transfected Plasmodium berghei strain ANKA infected in NMRI mouse assessed as reduction in parasitemia at 25 mg/kg, po administered as single dose measured on day 3 by FACS analysis; assay type: functional; design: scale not given: the % may be the effect or the level left
Plasmodium berghei [18] = test: Antimalarial activity against GFP-transfected Plasmodium berghei strain ANKA infected in NMRI mouse assessed as reduction in parasitemia at 25 mg/kg, po administered as single dose measured on day 4 by FACS analysis; assay type: functional; design: scale not given: the % may be the effect or the level left
Plasmodium berghei [19] = test: Antimalarial activity against GFP-transfected Plasmodium berghei strain ANKA infected in NMRI mouse assessed as reduction in parasitemia at 25 mg/kg, po administered as single dose measured on day 5 by FACS analysis; assay type: functional; design: scale not given: the % may be the effect or the level left
[20] = Metabolic stability in rat liver microsomes assessed as degradation half life after 60 mins by LC-MS analysis; assay type: ADME, Microsome
[21] = Metabolic stability in mouse liver microsomes assessed as degradation half life after 60 mins by LC-MS analysis; assay type: ADME, Microsome
Rattus norvegicus [22] = test: AUC (0 to tlast) in fasted Sprague-Dawley rat assessed as 1-(2-Diethylaminoethylamino)-3-[4-(trifluoromethyl)phenyl]-pyrido[1,2-a]benzimidazole-4-carbonitrile at 5 mg/kg, iv after 48 hrs by LC-MS analysis; assay type: ADME, organism-based, Plasma; design: time < 48 hr, dose 5 mg/kg, route intravenous; details: in vivo
Plasma [23] = test: Plasma protein binding in mouse assessed as 1-(2-Diethylaminoethylamino)-3-[4-(trifluoromethyl)phenyl]-pyrido[1,2-a]benzimidazole-4-carbonitrile at 5 mg/kg, iv after 48 hrs by LC-MS analysis; assay type: ADME, organism-based; design: dose 5 mg/kg, route intravenous; details: in vivo
Plasma [24] = test: Plasma protein binding in human assessed as 1-(2-Diethylaminoethylamino)-3-[4-(trifluoromethyl)phenyl]-pyrido[1,2-a]benzimidazole-4-carbonitrile at 5 mg/kg, iv after 48 hrs by LC-MS analysis; assay type: ADME, organism-based; design: dose 5 mg/kg, route intravenous; details: in vivo
Rattus norvegicus [25] = test: Apparent half life in fasted Sprague-Dawley rat assessed as 1-(2-Diethylaminoethylamino)-3-[4-(trifluoromethyl)phenyl]-pyrido[1,2-a]benzimidazole-4-carbonitrile at 20 mg/kg, po after 48 hrs by LC-MS analysis; assay type: ADME, organism-based; design: dose 20 mg/kg, route oral; details: in vivo
Rattus norvegicus [26] = test: Drug excretion in fasted Sprague-Dawley rat urine assessed as 1-(2-Diethylaminoethylamino)-3-[4-(trifluoromethyl)phenyl]-pyrido[1,2-a]benzimidazole-4-carbonitrile at 20 mg/kg, po after 48 hrs by LC-MS analysis; assay type: ADME, organism-based; design: dose 20 mg/kg, route oral; details: in vivo
Rattus norvegicus [27] = test: Tmax in fasted Sprague-Dawley rat assessed as 1-(2-Diethylaminoethylamino)-3-[4-(trifluoromethyl)phenyl]-pyrido[1,2-a]benzimidazole-4-carbonitrile at 20 mg/kg, po after 48 hrs by LC-MS analysis; assay type: ADME, organism-based; design: dose 20 mg/kg, route oral; details: in vivo
Rattus norvegicus [28] = test: Oral bioavailability in fasted Sprague-Dawley rat assessed as 1-(2-Diethylaminoethylamino)-3-[4-(trifluoromethyl)phenyl]-pyrido[1,2-a]benzimidazole-4-carbonitrile at 20 mg/kg, po after 48 hrs by LC-MS analysis; assay type: ADME, organism-based; details: in vivo
Rattus norvegicus [29] = test: Drug excretion in fasted Sprague-Dawley rat urine assessed as 1-(2-Ethylaminoethylamino)-3-[4-(trifluoromethyl)phenyl]- pyrido[1,2-a]benzimidazole-4-carbonitrile level at 5 mg/kg, iv after 48 hrs by LC-MS analysis; assay type: ADME, organism-based; design: dose 5 mg/kg, route intravenous; details: in vivo
Plasmodium berghei [30] = test: Antimalarial activity against GFP-transfected Plasmodium berghei strain ANKA infected in NMRI mouse assessed as increase in mean survival time at 25 mg/kg, po administered as single dose (reference value: 5 days )

Description for Plasmodium falciparum: Antimalarial activity against multidrug-resistant Plasmodium falciparum K1 infected in human red blood cells assessed as 3H-hypoxanthine incorporation after 48 hrs by liquid scintillation counting

Compound: CCN(CC)CCNc1cc(-c2ccc(C(F)(F)F)cc2)c(C#N)c2nc3ccccc3n12.Cl.Cl
- Activity (Plasmodium berghei [1]): 5.15%
- IC50 (L6): 89.6 µM
- t1/2(app) (Rattus norvegicus [2]): 7.3 h
- microsomal CLint [3]: 71.8 µL/min/mg
- Activity (Rattus norvegicus [4]): 0.39%
- microsomal CLint [5]: 127 µL/min/mg
- microsomal CLint [6]: 69.8 µL/min/mg
- Activity (Plasmodium berghei [7]): 91.9%
- Tmax (Rattus norvegicus [8]): 10.7 h
- Tmax (Rattus norvegicus [9]): 20 h
- AUClast (Rattus norvegicus [10]): 666 µM·min
- Cmax (Rattus norvegicus [11]): 920 nM
- Activity (Rattus norvegicus [12]): 0.05%
- MSD (Plasmodium berghei [13]): 16 days
- Activity (Plasmodium berghei [14]): 59.97%
- Activity (Plasmodium berghei [15]): 78.22%
- Activity (Plasmodium berghei [16]): 13.07%
- Activity (Plasmodium berghei [17]): 24.38%
- Activity (Plasmodium berghei [18]): 51.13%
- Activity (Plasmodium berghei [19]): 70.33%
- half-life [20]: 0.413 h
- half-life [21]: 0.402 h
- AUClast (Rattus norvegicus [22]): 304 µM·min
- PPB (Plasma [23]): 97.9%
- PPB (Plasma [24]): 96.7%
- t1/2(app) (Rattus norvegicus [25]): 6.4 h
- Activity (Rattus norvegicus [26]): 0.05%
- Tmax (Rattus norvegicus [27]): 4.13 h
- F (Rattus norvegicus [28]): > 22%
- Activity (Rattus norvegicus [29]): 0.08%
- IC50 (Plasmodium falciparum): 0.08 µM
- MSD (Plasmodium berghei [30]): 8 days
